This note sets out measurements from patent publication EP0279357A2, “Composition for the treatment of coronary diseases or organic brain syndrome” (BOEHRINGER INGELHEIM KG, priority 1987, dated 1988).

The test system of experiment [1] is myocardiale Radiocalciumaufnahme. Briefly: Inhibition of isoprenaline-induced myocardial radiocalcium uptake in conscious rats after oral dosing (method of Arndts). Type of experiment: in vivo, Ratten. The conditions noted are these: Rattus norvegicus, oral dose that inhibits by 50 % the myocardial radiocalcium uptake caused by 30 mg/kg s.c. Isoprenalin, read-out: H50. The text has this: 1. Bekanntlich ist der myocardiale Ca²⁺ Gehalt ein Maß für die hypoxische bzw. die durch toxische Catecholamindosen hervorgerufene Herzschädigung (Higgins et al. Mol. Cell. Cardiol. 10. 427-438, 1984; Nakanishi et. al., Am. J. Physiol. 242, 437-449, 1982; Fleckenstein A., Vorträge der Erlanger Physiol. Tagung 1970, Edit. Keidel, Springer Verl. Berlin; Heidelberg, New York, 1971). Umgekehrt ist die Inhibition der hypoxischen oder Isoprenalin-bedingten myocardialen Calciumaufnahme ein Maß für die cardioprotektive Effektivität von Calciumantagonisten (Fleckenstein s.o), von Calmodulinhibitoren (Higgins s.o.) und anderen Pharmaka, z.B. Betaadrenolytika (Arndts, Arzneimittelforschung, 25, 1279-1284 (1975)). Die cardioprotektive Wirkung wurde an wachen Ratten nach oraler Wirkstoffgabe anhand der von Arndts (s.o.) beschriebenen Methoden festgestellt und die Wirkungsstärke der Testsubstanzen als H₅₀-Werte angegeben; dieser Wert entspricht der Dosis, die die durch eine Gabe von 30 mg/kg s.c. Isoprenalin bedingte myocardiale Radiocalciumaufnahme bis 50 % hemmt. Hier erwiesen sich die vorliegenden Verbindungen als wirksamer als die bekannten Handelsprodukte Captopril und Enalapril. Die Ergebnisse sind in Tabelle I dargestellt.

Experiment [2] has as its system Ca²⁺-Efflux an der Kaninchen-Aorta. Briefly: Stimulated Ca2+ efflux in rabbit aorta (method of van Breemen et al. / Casteels and Droogman). The experiment is classed as cell-based. The note with it: Oryctolagus cuniculus, read-out: Hemmung des durch 10⁻⁵ mol/l Noradrenalin stimulierten Ca²⁺ Efflux. The text has this: (§1) 2. In einer weiteren Testanordnung wurde die Wirkung und der Mechanismus der Verbindungen auf die Ca²⁺-Fluxe wie folgt nachgewiesen: Die Bestimmung des Ca²⁺-Efflux wurde nach der Methode von C. van Breemen, P. Aarsonson, R. Loutzenheiser und K. Meisheri (Chest 78, 157S-165S (1980) und von R. Casteels und G.Droogman (J.Physiol. 317, 263-276 (1981)) durchgeführt. Mit dem Ca²⁺-Efflux wird die intrazelluläre Ca²⁺-Freisetzung auf eine Rezeptorstimulation gemessen. Damit ist eine quantitative Beurteilung des Ausmaßes der Rezeptor-vermittelten Wirkung möglich.
(§2) Untersuchungen zum Ca²⁺-Efflux an der Kaninchen-Aorta ergaben, daß die Verbindungen der Formel I den durch Kaliumionen und Noradrenalin stimulierten Ca²⁺-Efflux hemmen.
(§3) Versuche mit der oben genannten Verbindung A (N-[N-(1-L-Ethoxycarbonyl-3-phenylpropyl)-L-alanyl]4,5,6,7-tetrahydro-thieno[2,3-c]pyridin-7-L-carbonsäure ergaben: Die Hemmung des durch 10⁻⁵ mol/l Noradrenalin stimulierten Ca²⁺ Efflux liegt bei 25, 24 und 30 % mit der oben angeführten Verbindung A in den entsprechenden Konzentrationen 10⁻⁶, 10⁻⁵ und 10⁻⁴ mol/l. Das weist auf eine grundsätzlich nur partielle Hemmung hin. Der Ca²⁺-Influx durch K⁺ Depolarisation wird zu 38% gehemmt (10⁻⁵ mol/l der Verbindung A).

The subject of experiment [3] is ischämischen Langendorff-Herzen. Kind of experiment: Ischaemic Langendorff heart, recovery of regular contractions after reperfusion (in vitro or ex vivo). The conditions noted are these: ischaemic Langendorff hearts. From the text:
Hieraus läßt sich eine protektive Wirksamkeit der Substanzen auf Herzschädigungen während Hypoxie oder Ischämie ableiten.

Experiment [4] relates to Ca²⁺-Influx durch K⁺ Depolarisation. Kind of experiment: Ca2+ influx by K+ depolarisation. Type of experiment: cell-based, Kaninchen. The conditions noted are these: Oryctolagus cuniculus; compound 10⁻⁵ mol/l; read-out: Hemmung des Ca²⁺-Influx durch K⁺ Depolarisation.
Excerpt: as §1, §2, §3

The test system of the next experiment is Mäusen (ChbI:NMRI). Kind of experiment: Scopolamine test: passive avoidance reaction in mice. Type of experiment: in vivo. The text has this: Durch den cholinerg-muskarinen Antagonisten Scopolamin wird bei Mensch und Tier eine vorübergehende Störung des Überganges von Inhalten des Kurzzeitgedächtnisses in das Langzeitgedächtnis hervorgerufen. Die auch klinisch bei gesunden Probanden durch Scopolamin auslösbaren, mnestischen Störungen sind in ihrer Ausprägung den psychopathologischen Veränderungen bei Patienten mit organischem Hirnsyndrom ähnlich (Drachman & Leavitt, 1974).
Der Scopolamin-Test wird an Gruppen von jeweils 10 männlichen, nicht nüchternen, naiven Mäusen (ChbI:NMRI; Körpergewicht 35 g) mit Hilfe einer passiven Vermeidereaktion durchgeführt. Das Testgerät besteht aus einer Skinner Box (30 cm × 26 cm × 29 cm) mit einem elektrifizierbaren Gitterboden und einer Plastikplattform (5 cm × 5 cm) an einer Seitenwand. Die Tiere werden einzeln in die Skinner Box gesetzt. Nach einer Orientierungsperiode von 30 sec werden kurze, unterbrochene Stromstöße von ca. 0,8 mA so oft an den Gitterboden der Box gelegt, bis das Tier gelernt hat, daß das Aufsuchen und Verweilen auf der Plastikplattform vor dem Stromstoß Sicherheit gewährt. Tiere, welche dies innerhalb von 120 sec nicht lernen, werden nicht weiter verwendet. Die anderen Mäuse werden unmittelbar nach Erlernen der passiven Vermeidereaktion in drei Gruppen (10 Tiere pro Gruppe) eingeteilt. Eine Gruppe erhält Scopolaminhydrobromid (0,6 mg/kg s.c.) und oral Vehikel (0,5 % Tylose); die zweite Gruppe Scopolaminhydrobromid sowie die zu testende Substanz per os in 0,5 % Tylose und die dritte Gruppe lediglich 0,5 % Tylose p.o.. Eine Stunde nach Application wird jedes Tier einzeln auf die Plattform gesetzt, um das Erinnerungsvermögen an die erlernte Vermeidereaktion zu prüfen. Das Kriterium besteht in der Bestimmung, ob die Maus während mindestens 60 sec. auf der Plattform verbleibt (Ja-Antwort) oder nicht (Nein-Antwort).
Etwa 75% der Tiere, welche ausschließlich mit 0,5 % Tylose behandelt wurden, verbleiben bei der abschließenden Prüfung länger als 60 sec. auf der Plattform: ein Ergebnis, welches als Ausdruck des guten Erinnerungsvermögens an die erlernte Erfahrung gedeutet werden kann. Nach Gabe von Scopolamin und Tylose verbleiben durchschnittlich etwa 25 % der Tiere auf der Plattform; dies zeigt die erhebliche Beeinträchtigung des Erinnerungsvermögens nach Gabe von Scopolamin. Verbindungen der Formel I antagonisieren die Scopolaminwirkung statistisch signifikant. Zum Beispiel ist die oben genannte Verbindung A (N-[N-(1-L-Ethoxycarbonyl-3-phenylpropyl)-L-alanyl]-4,5,6,7-tetrahydro-thieno[2,3-c]-pyridin-7-L-carbonsäure) bei einer Dosis über 0,1 mg/kg p.o. (insbesondere ab 0,5 mg/kg p.o.) wirksam. In Gegensatz dazu sind Captopril bei Dosen von 10 und 30 mg/kg p.o. und Enalapril bei einer Dosis von 5 mg/kg p.o. unwirksam.

For `CCOC(=O)[C@H](CCc1ccccc1)N[C@@H](C)C(=O)N1CCc2ccsc2[C@H]1C(=O)O` [A, N-[N-(1-L-Ethoxycarbonyl-3-phenylpropyl)-L-alanyl]-4,5,6,7-tetrahydro-thieno[2,3-c]pyridin-7-L-carbonsäure], the ED50 in experiment [1] is 0.63 mg/kg. For the same molecule, the inhibition at 100 µM in experiment [2] (compound 10⁻⁴ mol/l) came to 30%. Also, the inhibition at 10 µM was 24% in experiment [2] (compound 10⁻⁵ mol/l) and 38% in experiment [4]. Also, the inhibition at 1 µM in experiment [2] (compound 10⁻⁶ mol/l) worked out at 25%. The “Wiederauftreten regelmäßiger Kontraktionen nach Reperfusion” value in experiment [3] is listed as “zeitliche Verkürzung des Wiederauftretens regelmäßiger Kontraktionen”. Besides, the “Antagonismus der Scopolaminwirkung” value in the experiment with Mäusen (ChbI:NMRI) (dose above 0,1 mg/kg p.o. (especially from 0,5 mg/kg p.o.)) was “wirksam”.

Regarding `CC(CS)C(=O)N1CCC[C@@H]1C(=O)O` (stereo partly drawn) [Captopril, D-2-Methyl-3-mercaptopropanoyl-L-prolin], in experiment [1], the ED50 was found to be 1.52 mg/kg. In addition, the “Wiederauftreten regelmäßiger Kontraktionen nach Reperfusion” value in experiment [3] is given as “deutlich schwächer”. Besides, the “Antagonismus der Scopolaminwirkung” value in the experiment on Mäusen (ChbI:NMRI) (10 mg/kg p.o.) and in the experiment with Mäusen (ChbI:NMRI) (30 mg/kg p.o.) was “unwirksam” each time.

As to `C[C@H](N[C@@H](CCc1ccccc1)C(=O)O)C(=O)N1Cc2nc[nH]c2C[C@H]1C(=O)O` [D, N-[N-(1-L-Carboxy-3-phenylpropyl)-L-alanyl]-4,5,6,7-tetrahydro-1H-imidazo[4,5-c]pyridin-6-L-carbonsäure], the ED50 in experiment [1] came out at 1.32 mg/kg.

`C[C@H](N[C@@H](CCc1ccccc1)C(=O)O)C(=O)N1Cc2ccsc2C[C@H]1C(=O)O` [E, N-[N-(1-L-Carboxy-3-phenylpropyl)-L-alanyl]-4,5,6,7-tetrahydro-thieno[3,2-c]pyridin-6-L-carbonsäure]: the ED50 in experiment [1] came to 1.1 mg/kg.

As to `CCOC(=O)[C@H](CCc1ccccc1)N[C@@H](C)C(=O)N1CCC[C@H]1C(=O)O` [Enalapril, 1-N-[(S)-1-Ethoxycarbonyl-3-phenylpropyl]-S-alanyl-S-prolin], the ED50 in experiment [1] was determined as 1.59 mg/kg. Moreover, in experiment [3], the “Wiederauftreten regelmäßiger Kontraktionen nach Reperfusion” value was “deutlich schwächer”. In the experiment with Mäusen (ChbI:NMRI) (5 mg/kg p.o.), the “Antagonismus der Scopolaminwirkung” value was “unwirksam”.
